Literature values in US20260014182A1, “METHOD OF TREATING CANCER” (M.T.3, Inc., priority 2019, published 2026).

Tested on: angiogenesis
Settings: in-vitro test, used with radiation

| Structure (SMILES) | angiogenesis |
| --- | --- |
| CCCCCCCCCC(=O)OCCCO[C@H]1O[C@H](CS(=O)(=O)[O-])[C@@H](O)[C@H](O)[C@H]1O.[Na+] [αSQAP C10:0] | inhibited |
| CCCCCCCCCCCCCCCCCC(=O)OCCCO[C@@H]1O[C@H](CS(=O)(=O)[O-])[C@@H](O)[C@H](O)[C@H]1O.[Na+] [βSQAP C18:0] | inhibited |
| CCCCCCCCCCCCCC(=O)OCCCO[C@H]1O[C@H](CS(=O)(=O)[O-])[C@@H](O)[C@H](O)[C@H]1O.[Na+] [αSQAP C14:0] | inhibited |
| CCCCCCCCCCCCCCCCCCCCCC(=O)OCCCO[C@H]1O[C@H](CS(=O)(=O)[O-])[C@@H](O)[C@H](O)[C@H]1O.[Na+] [αSQAP C22:0] | inhibited |
